Measured values as given in PubChem BioAssay (NCI).
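How tested: cells in 96-well plates exposed to compound for 48 hours at five concentrations. Here, GI50 denotes the concentration required for 50% inhibition of growth. Definition used: TGI = concentration required for complete inhibition of growth.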

Key:
Experiment in all cases: DTP human tumour cell line panel, 48 h
K-562 leukemia = system: K-562 leukemia
LOX IMVI melanoma = system: LOX IMVI melanoma
MOLT-4 leukemia = system: MOLT-4 leukemia
EKVX NSCLC = system: EKVX NSCLC
SNB-75 CNS = system: SNB-75 CNS
NCI-H226 lung = system: NCI-H226 lung
SW-620 colon = system: SW-620 colon
NCI-H460 lung = system: NCI-H460 lung
COLO 205 colon = system: COLO 205 colon
ACHN renal = system: ACHN renal
OVCAR-4 ovarian = system: OVCAR-4 ovarian
BT-549 breast = system: BT-549 breast
OVCAR-3 ovarian = system: OVCAR-3 ovarian
HL-60(TB) leukemia = system: HL-60(TB) leukemia
SK-MEL-28 melanoma = system: SK-MEL-28 melanoma
MDA-MB-231 breast = system: MDA-MB-231 breast
A549 NSCLC = system: A549 NSCLC
SK-MEL-2 melanoma = system: SK-MEL-2 melanoma
NCI-H23 lung = system: NCI-H23 lung
MALME-3M melanoma = system: MALME-3M melanoma
OVCAR-5 ovarian = system: OVCAR-5 ovarian
SNB-19 CNS = system: SNB-19 CNS
TK-10 renal = system: TK-10 renal
KM12 colon = system: KM12 colon
U251 CNS = system: U251 CNS
HOP-92 NSCLC = system: HOP-92 NSCLC
IGROV1 ovarian = system: IGROV1 ovarian
SF-268 CNS = system: SF-268 CNS
HCT-116 colon = system: HCT-116 colon
UACC-62 melanoma = system: UACC-62 melanoma
UO-31 renal = system: UO-31 renal
T-47D breast = system: T-47D breast
CCRF-CEM leukemia = system: CCRF-CEM leukemia
HS 578T breast = system: HS 578T breast
786-0 renal = system: 786-0 renal
PC-3 prostate = system: PC-3 prostate
HCT-15 colon = system: HCT-15 colon
A498 renal = system: A498 renal
DU-145 prostate = system: DU-145 prostate
MCF7 breast = system: MCF7 breast
SR leukemia = system: SR leukemia
NCI/ADR-RES ovarian = system: NCI/ADR-RES ovarian
MDA-MB-435 = system: MDA-MB-435
RPMI-8226 leukemia = system: RPMI-8226 leukemia
SK-MEL-5 melanoma = system: SK-MEL-5 melanoma
SF-539 CNS = system: SF-539 CNS
SK-OV-3 ovarian = system: SK-OV-3 ovarian
HCC-2998 colon = system: HCC-2998 colon
M14 melanoma = system: M14 melanoma
RXF 393 renal = system: RXF 393 renal
HT29 colon = system: HT29 colon
UACC-257 melanoma = system: UACC-257 melanoma
SN12C renal = system: SN12C renal
OVCAR-8 ovarian = system: OVCAR-8 ovarian
NCI-H522 lung = system: NCI-H522 lung
HOP-62 NSCLC = system: HOP-62 NSCLC
SF-295 CNS = system: SF-295 CNS

Structure (SMILES): Clc1ccc2c(NCCCCNc3nc(N4CCOCC4)nc4ccccc34)ccnc2c1
- GI50 (K-562 leukemia): 1.43 µM
- TGI (K-562 leukemia): 11.2 µM
- GI50 (LOX IMVI melanoma): 1.73 µM
- TGI (LOX IMVI melanoma): 3.25 µM
- GI50 (MOLT-4 leukemia): 3.59 µM
- TGI (MOLT-4 leukemia): 14 µM
- GI50 (EKVX NSCLC): 3.7 µM
- TGI (EKVX NSCLC): 15.3 µM
- GI50 (SNB-75 CNS): 1.33 µM
- TGI (SNB-75 CNS): 3.03 µM
- GI50 (NCI-H226 lung): 1.72 µM
- TGI (NCI-H226 lung): 3.68 µM
- GI50 (SW-620 colon): 2.65 µM
- TGI (SW-620 colon): 12.5 µM
- GI50 (NCI-H460 lung): 2.22 µM
- TGI (NCI-H460 lung): 5.22 µM
- GI50 (COLO 205 colon): 1.87 µM
- TGI (COLO 205 colon): 4.49 µM
- GI50 (ACHN renal): 1.9 µM
- TGI (ACHN renal): 3.6 µM
- GI50 (OVCAR-4 ovarian): 2.2 µM
- TGI (OVCAR-4 ovarian): 5.52 µM
- GI50 (BT-549 breast): 2.96 µM
- TGI (BT-549 breast): 9.42 µM
- GI50 (OVCAR-3 ovarian): 1.93 µM
- TGI (OVCAR-3 ovarian): 3.7 µM
- GI50 (HL-60(TB) leukemia): 2.27 µM
- TGI (HL-60(TB) leukemia): 4.3 µM
- GI50 (SK-MEL-28 melanoma): 2.03 µM
- TGI (SK-MEL-28 melanoma): 4.03 µM
- GI50 (MDA-MB-231 breast): 2.1 µM
- TGI (MDA-MB-231 breast): 4.5 µM
- GI50 (A549 NSCLC): 3.16 µM
- TGI (A549 NSCLC): 11.3 µM
- GI50 (SK-MEL-2 melanoma): 2.23 µM
- TGI (SK-MEL-2 melanoma): 5.02 µM
- GI50 (NCI-H23 lung): 5.68 µM
- TGI (NCI-H23 lung): 23.2 µM
- GI50 (MALME-3M melanoma): 2.05 µM
- TGI (MALME-3M melanoma): 3.89 µM
- GI50 (OVCAR-5 ovarian): 3.36 µM
- TGI (OVCAR-5 ovarian): 12 µM
- GI50 (SNB-19 CNS): 3.37 µM
- TGI (SNB-19 CNS): 12.6 µM
- GI50 (TK-10 renal): 1.92 µM
- TGI (TK-10 renal): 3.61 µM
- GI50 (KM12 colon): 3.52 µM
- TGI (KM12 colon): 12.4 µM
- GI50 (U251 CNS): 1.84 µM
- TGI (U251 CNS): 3.66 µM
- GI50 (HOP-92 NSCLC): 1.88 µM
- TGI (HOP-92 NSCLC): 4.29 µM
- GI50 (IGROV1 ovarian): 2.99 µM
- TGI (IGROV1 ovarian): 11.5 µM
- GI50 (SF-268 CNS): 3.29 µM
- TGI (SF-268 CNS): 13.7 µM
- GI50 (HCT-116 colon): 2.13 µM
- TGI (HCT-116 colon): 4.63 µM
- GI50 (UACC-62 melanoma): 1.92 µM
- TGI (UACC-62 melanoma): 3.48 µM
- GI50 (UO-31 renal): 1.66 µM
- TGI (UO-31 renal): 3.12 µM
- GI50 (T-47D breast): 2.23 µM
- TGI (T-47D breast): 6.82 µM
- GI50 (CCRF-CEM leukemia): 3.42 µM
- TGI (CCRF-CEM leukemia): 9.38 µM
- GI50 (HS 578T breast): 2.25 µM
- TGI (HS 578T breast): 7.66 µM
- GI50 (786-0 renal): 2.28 µM
- TGI (786-0 renal): 5.94 µM
- GI50 (PC-3 prostate): 6.37 µM
- TGI (PC-3 prostate): 19.5 µM
- GI50 (HCT-15 colon): 2.75 µM
- TGI (HCT-15 colon): 11.4 µM
- GI50 (A498 renal): 1.83 µM
- TGI (A498 renal): 4.28 µM
- GI50 (DU-145 prostate): 4.62 µM
- TGI (DU-145 prostate): 16.5 µM
- GI50 (MCF7 breast): 3.81 µM
- TGI (MCF7 breast): 17.7 µM
- GI50 (SR leukemia): 0.295 µM
- TGI (SR leukemia): 0.853 µM
- GI50 (NCI/ADR-RES ovarian): 4.88 µM
- TGI (NCI/ADR-RES ovarian): 20.6 µM
- GI50 (MDA-MB-435): 2.4 µM
- TGI (MDA-MB-435): 6.18 µM
- GI50 (RPMI-8226 leukemia): 2.8 µM
- TGI (RPMI-8226 leukemia): 7.21 µM
- GI50 (SK-MEL-5 melanoma): 1.83 µM
- TGI (SK-MEL-5 melanoma): 3.3 µM
- GI50 (SF-539 CNS): 1.8 µM
- TGI (SF-539 CNS): 3.39 µM
- GI50 (SK-OV-3 ovarian): 3.03 µM
- TGI (SK-OV-3 ovarian): 9.97 µM
- GI50 (HCC-2998 colon): 3.81 µM
- TGI (HCC-2998 colon): 14 µM
- GI50 (M14 melanoma): 2 µM
- TGI (M14 melanoma): 3.91 µM
- GI50 (RXF 393 renal): 1.65 µM
- TGI (RXF 393 renal): 3.73 µM
- GI50 (HT29 colon): 2.61 µM
- TGI (HT29 colon): 7.14 µM
- GI50 (UACC-257 melanoma): 15.2 µM
- TGI (UACC-257 melanoma): 29.9 µM
- GI50 (SN12C renal): 2.03 µM
- TGI (SN12C renal): 4.31 µM
- GI50 (OVCAR-8 ovarian): 3.53 µM
- TGI (OVCAR-8 ovarian): 10.6 µM
- GI50 (NCI-H522 lung): 2.34 µM
- TGI (NCI-H522 lung): 5.6 µM
- GI50 (HOP-62 NSCLC): 2.17 µM
- TGI (HOP-62 NSCLC): 5.67 µM
- GI50 (SF-295 CNS): 1.79 µM
- TGI (SF-295 CNS): 3.73 µM
